Test results published in PubChem BioAssay (NCI).
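In this assay, cells in 96-well plates receive the compound at five concentrations for 48 hours. Endpoints are linearly interpolated between the surrounding concentrations. TGI denotes the concentration required for complete inhibition of growth.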

Tests used:
Experiment in all cases: growth of human tumour cells (NCI), 48 h
RXF 393 renal = tested on: RXF 393 renal
SR leukemia = tested on: SR leukemia
U251 CNS = tested on: U251 CNS
786-0 renal = tested on: 786-0 renal
MDA-MB-231 breast = tested on: MDA-MB-231 breast
ACHN renal = tested on: ACHN renal
SNB-75 CNS = tested on: SNB-75 CNS
NCI-H23 lung = tested on: NCI-H23 lung
LOX IMVI melanoma = tested on: LOX IMVI melanoma
UACC-257 melanoma = tested on: UACC-257 melanoma
DU-145 prostate = tested on: DU-145 prostate
TK-10 renal = tested on: TK-10 renal
HL-60(TB) leukemia = tested on: HL-60(TB) leukemia
T-47D breast = tested on: T-47D breast
MALME-3M melanoma = tested on: MALME-3M melanoma
NCI/ADR-RES ovarian = tested on: NCI/ADR-RES ovarian
IGROV1 ovarian = tested on: IGROV1 ovarian
MDA-N = tested on: MDA-N
A498 renal = tested on: A498 renal
HOP-92 NSCLC = tested on: HOP-92 NSCLC

| SMILES | TGI (RXF 393 renal) [µM] | TGI (SR leukemia) [µM] | TGI (U251 CNS) [µM] | TGI (786-0 renal) [µM] | TGI (MDA-MB-231 breast) [µM] | TGI (ACHN renal) [µM] | TGI (SNB-75 CNS) [µM] | TGI (NCI-H23 lung) [µM] | TGI (LOX IMVI melanoma) [µM] | TGI (UACC-257 melanoma) [µM] | TGI (DU-145 prostate) [µM] | TGI (TK-10 renal) [µM] | TGI (HL-60(TB) leukemia) [µM] | TGI (T-47D breast) [µM] | TGI (MALME-3M melanoma) [µM] | TGI (NCI/ADR-RES ovarian) [µM] | TGI (IGROV1 ovarian) [µM] | TGI (MDA-N) [µM] | TGI (A498 renal) [µM] | TGI (HOP-92 NSCLC) [µM] |
| --- | --- | --- | --- | --- | --- | --- | --- | --- | --- | --- | --- | --- | --- | --- | --- | --- | --- | --- | --- | --- |
| CC1C(=O)C23OC[C@@]1(C)C1(O)CC[C@@H](C)[C@]21CC3=O (some centres not stated) | > 100 | > 100 | > 100 | > 100 | > 100 | > 100 | > 100 | > 100 | > 100 | > 100 | > 100 | > 100 | > 100 | > 100 | > 100 | > 100 | > 100 | > 100 |  |  |
| Cc1ccccc1NC(=O)C(=O)Cc1cnc2ccccc2n1 |  |  | > 100 | > 100 | > 100 | > 100 |  | > 100 | > 100 | > 100 | > 100 | > 100 | > 100 | > 100 | > 100 | > 100 | > 100 | > 100 | > 100 | > 100 |
| CC1OC(OC2C(O[C@@H]3C[C@@H]4CC[C@@H]5[C@H](CC[C@]6(C)[C@@H]7[C@H](C[C@@H]56)O[C@]5(CC[C@@H](C)CO5)[C@H]7C)[C@@]4(C)C[C@H]3O)OC(CO)C(OC3OC(CO)C(O)C(O)C3O)C2O)C(O)C(O)C1O (some centres not stated) | 3.53 |  | 3.2 | 3.32 | 3.39 | 3.18 | 5.76 | 4.12 |  | 3.3 | 4.29 |  | 3.83 | 11.2 | 2.57 | 3.88 | 2.39 | 3.37 | 3.1 | 5.16 |
| CN(CC#N)C(=O)Cc1ccc([N+](=O)[O-])cc1 | > 10 | > 10 | > 10 | > 10 | > 10 | > 10 |  | > 10 | > 10 | > 10 | > 10 | > 10 | > 10 | > 10 | > 10 | > 10 | > 10 | > 10 | > 10 |  |
| COP(=O)(C(/C=C/c1ccccc1)OC(C)=O)[C@@H]1CCCC[C@H]1N(CC(C)(C)C)C(C)=O (some centres not stated) | 22.1 | 36.2 | 31.7 | 35.8 | 31.6 | 30.7 | 22.7 | 42.5 | 30.3 | 31 | 32.5 | 48.2 | 41.3 | 32.6 | 33.4 | 42.2 | 24.1 | 36.7 |  |  |
| N#CC(c1ccccc1)(c1ccccc1)[C@@H](c1ccccc1)[C@H](Cc1ccccc1)NS(=O)(=O)c1ccccc1 | > 100 | > 100 | > 100 | > 100 | > 100 | > 100 | > 100 | > 100 | > 100 | > 100 | > 100 | > 100 | > 100 | > 100 | > 100 | > 100 | > 100 | > 100 | > 100 |  |
